Assay results published in US9795570B2, “Modulation of macrophage phenotype by emodin” (University of South Carolina, priority 2016, dated 2017).

What was measured:
[1] = tested on: mouse peritoneal macrophages; experiment: Whole genome microarray, macrophages stimulated with IL4; type: cell-based
Description: Three milliliters of 4% Thioglycolate solution was injected intraperitoneally into 8-12 week old C57BL/6 mice. Three days later, macrophages were collected by lavaging the peritoneal cavity with PBS. The cells were then resuspended in DMEM containing 10% FBS. After 2 h, non-adherent cells were washed away with PBS and the macrophages were cultured overnight in serum free DMEM. The macrophages were then treated with DMEM containing IL4 (10 ng/ml, BioAbChem Inc. Ladson, S.C.) or LPS (100 ng/ml, Sigma-Aldrich) and IFNγ (20 ng/ml, BioAbChem Inc) with or without emodin. Emodin was purchased from Nanjing Langze Medicine and Technology Co. Ltd (Nanjing, China) and dissolved in DMSO at a concentration of 10 mg/ml as a stock solution.
Microarray analysis was carried out as described previously, with a few alterations. Macrophages were stimulated with IL4 for 6 h or LPS+IFNγ for 24 h with or without emodin (50 μM). Samples were prepared in biological replicates of 4. Cells were lysed with Qiazol and RNA was extracted using Qiagen's miRNeasy kit. Agilent's 2100 Bioanalyzer was used to determine the quality and quantity of the RNA. […] The RNA was amplified and labeled with Agilent's Low Input Quick Amp Labeling Kit (Agilent) according to the manufacturer's instructions. Labeled RNA was then purified using Qiagen's RNeasy Mini Kit (Qiagen, Valencia, Calif.) and dye incorporation and cRNA yield were assessed. Labeled samples were hybridized to Agilent Whole Mouse Genome Microarrays 8×60K (Agilent) using Agilent's Gene Expression Hybridization Kit (Agilent) according to the manufacturer's instructions. Microarray analysis was performed using an Agilent DNA Microarray Scanner System (Cat. # G2565CA).
For microarray analysis, data was extracted from images with Feature Extractor Software version 10.7.3.1 (Agilent); background correction using detrending algorithms was performed. Subsequently, background-corrected data was uploaded into GeneSpring GX version 11.5.1 for analysis. In this process, data was log 2 transformed, quantile normalized and baseline transformed using the median of all samples. […] Differentially expressed genes were determined by analysis of the data using the Mann-Whitney unpaired statistics. A cutoff p-value of 0.05 and a fold change cutoff value of 2.0 were used to filter the data. Pathway analysis was performed using Ingenuity Pathway Analysis software.

IRF4 = IRF4 protein by western blotting; type: cell-based, mouse; conditions: IL4, emodin 0-50 μM, 6 h
Description: Following stimulation with IL4 or LPS+IFNγ with or without emodin for varying periods, macrophages were lysed with cell signaling lysis buffer (Millipore) for whole cell lysates. Cytoplasmic and nuclear extracts were prepared using the Epiquik Nuclear Extraction kit (Epigentek, Farmingdale, N.Y.). Total protein was separated on 4-20% Tris-glycine pre-cast gels (Pierce) and transferred onto Nitrocellulose membranes (Bio-Rad Life Science, Hercules, Calif.). The membranes were then probed with HRP conjugated secondary antibodies, and signals were detected using Pierce ECL Western Blotting Substrate (Pierce).

Cc1cc(O)c2c(c1)C(=O)c1cc(O)cc(O)c1C2=O [emodin]
fold reduction of IL4 induced expression ([1]; Arg1, microarray, emodin 50 μM): 7.69 fold | fold increase of expression under IL4 stimulation ([1]; CXCL2, microarray): 60.6 fold | fold increase of expression under IL4 stimulation ([1]; CXCL10, microarray): 15.5 fold | fold reduction of IL4 induced expression ([1]; Ch3I3, microarray, emodin 50 μM): 4.24 fold | fold reduction of IL4 induced expression ([1]; IRF4, microarray, emodin 50 μM): 97.43 fold | fold reduction of IL4 induced expression ([1]; Mrc1, microarray, emodin 50 μM): 2.29 fold | fold reduction of IL4 induced expression ([1]; SOCS1, microarray, emodin 50 μM): 22.9 fold | fold increase of expression under IL4 stimulation ([1]; TNFα, microarray): 2.7 fold | IL4 responsive genes whose induced changes were inhibited ([1]; emodin 50 μM, IL4 6 h): ~60% | Em + LPS vs. LPS/IFN (gene expression) ([1]; gene Arg1, microarray, emodin 50 μM): −7.69 | Em + LPS vs. LPS/IFN (gene expression) ([1]; gene CCL7, microarray, emodin 50 μM): −4.16 | Em + LPS vs. LPS/IFN (gene expression) ([1]; gene CCL11, microarray, emodin 50 μM): −11.31 | Em + LPS vs. LPS/IFN (gene expression) ([1]; gene CCL12, microarray, emodin 50 μM): 2.30 | Em + LPS vs. LPS/IFN (gene expression) ([1]; gene CCL28, microarray, emodin 50 μM): 2.27 | Em + LPS vs. LPS/IFN (gene expression) ([1]; gene CDH1, microarray, emodin 50 μM): −5.72 | Em + LPS vs. LPS/IFN (gene expression) ([1]; gene CDKN1A, microarray, emodin 50 μM): 29.78 | Em + LPS vs. LPS/IFN (gene expression) ([1]; gene CISH, microarray, emodin 50 μM): −7.11 | Em + LPS vs. LPS/IFN (gene expression) ([1]; gene CXCL2, microarray, emodin 50 μM): 60.63 | Em + LPS vs. LPS/IFN (gene expression) ([1]; gene CXCL10, microarray, emodin 50 μM): 15.05 | Em + LPS vs. LPS/IFN (gene expression) ([1]; gene CXCR1, microarray, emodin 50 μM): 12.40 | Em + LPS vs. LPS/IFN (gene expression) ([1]; gene Ccl2, microarray, emodin 50 μM): −4.26 | Em + LPS vs. LPS/IFN (gene expression) ([1]; gene Chi3I3, microarray, emodin 50 μM): −4.24 | Em + LPS vs. LPS/IFN (gene expression) ([1]; gene FCGR2B, microarray, emodin 50 μM): −2.15 | Em + LPS vs. LPS/IFN (gene expression) ([1]; gene FLT1, microarray, emodin 50 μM): −27.09 | Em + LPS vs. LPS/IFN (gene expression) ([1]; gene IL1R1, microarray, emodin 50 μM): −2.15 | Em + LPS vs. LPS/IFN (gene expression) ([1]; gene IL6, microarray, emodin 50 μM): −5.30 | Em + LPS vs. LPS/IFN (gene expression) ([1]; gene IL19, microarray, emodin 50 μM): −20.01 | Em + LPS vs. LPS/IFN (gene expression) ([1]; gene IRF4, microarray, emodin 50 μM): −97.43 | Em + LPS vs. LPS/IFN (gene expression) ([1]; gene IRF5, microarray, emodin 50 μM): −2.58 | Em + LPS vs. LPS/IFN (gene expression) ([1]; gene ITGB8, microarray, emodin 50 μM): −4.32 | Em + LPS vs. LPS/IFN (gene expression) ([1]; gene MMP13, microarray, emodin 50 μM): 3.68 | Em + LPS vs. LPS/IFN (gene expression) ([1]; gene Mrc1, microarray, emodin 50 μM): −2.29 | Em + LPS vs. LPS/IFN (gene expression) ([1]; gene PLA2G5, microarray, emodin 50 μM): 4.26 | Em + LPS vs. LPS/IFN (gene expression) ([1]; gene PTGS2, microarray, emodin 50 μM): 2.56 | Em + LPS vs. LPS/IFN (gene expression) ([1]; gene RBP4, microarray, emodin 50 μM): −15.56 | Em + LPS vs. LPS/IFN (gene expression) ([1]; gene SOCS1, microarray, emodin 50 μM): −22.90 | Em + LPS vs. LPS/IFN (gene expression) ([1]; gene SOCS2, microarray, emodin 50 μM): −5.47 | Em + LPS vs. LPS/IFN (gene expression) ([1]; gene TNF, microarray, emodin 50 μM): 2.69 | expression of CDKN1A (p21) ([1]; microarray): increased the expression | expression of M2 genes YM1 and Mrc1 in IL4-stimulated cells ([1]; microarray): reducing them | IRF4 protein production (IRF4): dose dependently inhibited
